Assay results as given in ChEMBL document CHEMBL1212936, “Discovery of 2-[1-(4-chlorophenyl)cyclopropyl]-3-hydroxy-8-(trifluoromethyl)quinoline-4-carboxylic acid (PSI-421), a P-selectin inhibitor with improved pharmacokinetic properties and oral efficacy in models of vascular injury” (J Med Chem, 2010).
pIC50: −log10 of the molar value. In brackets after ≈: the same amount, converted by molar mass.

Tests used:
[1] = Aqueous solubility of the compound at pH 6.6; format: physicochemical; conditions: aqueous solution
[2] = molecular target: T1, P-selectin glycoprotein ligand 1 (Homo sapiens) (UniProt Q14242); test: Inhibition of recombinant PSGL-1 at 250 uM by surface plasmon resonance assay
T1 sequence (whole entry): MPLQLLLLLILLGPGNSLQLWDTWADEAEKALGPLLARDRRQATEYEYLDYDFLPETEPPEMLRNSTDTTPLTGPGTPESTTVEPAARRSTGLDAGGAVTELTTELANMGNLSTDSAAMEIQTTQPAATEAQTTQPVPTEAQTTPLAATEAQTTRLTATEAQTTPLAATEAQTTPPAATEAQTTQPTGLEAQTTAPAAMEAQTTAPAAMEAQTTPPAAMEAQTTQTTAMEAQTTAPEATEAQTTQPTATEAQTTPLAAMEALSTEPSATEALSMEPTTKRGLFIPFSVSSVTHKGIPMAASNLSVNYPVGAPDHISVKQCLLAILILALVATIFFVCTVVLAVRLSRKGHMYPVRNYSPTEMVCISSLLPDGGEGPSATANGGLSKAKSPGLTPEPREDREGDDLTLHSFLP

Rattus norvegicus = test: Dose normalized AUC in Sprague-Dawley rat measured per mg of plasma at 3 mg/kg, iv and 10 mg/kg, po; format: ADME, organism-based; conditions: in vivo
[3] = Oral bioavailability in Sprague-Dawley rat at 10 mg/kg; format: ADME, organism-based; conditions: in vivo
[4] = Clearance in Sprague-Dawley rat at 3 mg/kg, iv and 10 mg/kg, po; format: ADME, organism-based; conditions: in vivo
CYP2C9 = CYP2C9 (Homo sapiens, UniProt P11712); test: Inhibition of CYP2C9 at 3 uM; format: ADME
[5] = molecular target: T2, P-selectin glycoprotein ligand 1 (Homo sapiens, UniProt Q14242); test: Inhibition of recombinant PSGL-1 by surface plasmon resonance assay
T2 sequence (Q14242 whole entry): T1 sequence (whole entry)

Mus musculus = test: Reduction of leukocytes rolling flux in acute intravital microscopy model of C57B6 mouse cremasteric postcapillary venules at 50 mg/kg, po after 35 mins relative to control; format: functional; parameters: scale not given: the % may be the effect or the level left

CYP2C9, sequence (P11712 whole entry): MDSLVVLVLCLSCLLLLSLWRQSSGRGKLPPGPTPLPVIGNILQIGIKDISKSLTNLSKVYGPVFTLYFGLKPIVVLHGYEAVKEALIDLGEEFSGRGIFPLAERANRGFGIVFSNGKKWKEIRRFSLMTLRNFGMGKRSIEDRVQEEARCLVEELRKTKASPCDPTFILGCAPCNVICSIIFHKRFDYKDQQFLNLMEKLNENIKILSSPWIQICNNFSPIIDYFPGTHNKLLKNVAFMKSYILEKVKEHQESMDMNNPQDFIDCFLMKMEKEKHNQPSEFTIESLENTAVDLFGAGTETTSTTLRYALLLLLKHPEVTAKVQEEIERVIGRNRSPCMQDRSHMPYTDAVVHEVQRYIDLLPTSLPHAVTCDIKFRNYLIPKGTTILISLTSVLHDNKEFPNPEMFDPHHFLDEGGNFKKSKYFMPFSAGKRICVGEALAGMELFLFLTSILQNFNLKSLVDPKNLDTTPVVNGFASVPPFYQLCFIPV

SMILES	solubility [1] [µg/mL]	inhibition [2] [%]	AUC (Rattus norvegicus) [ng·h/mL]	bioavailability [3] [%]	clearance [4] [mL/min/kg]	further results
O=C(O)c1c(O)c(C2(c3ccccc3)CC2)nc2c(C(F)(F)F)cccc12	2100 (≈ 5630 µM)	44	–	–	–	–
CC(C)(c1ccccc1)c1nc2c(C(F)(F)F)cccc2c(C(=O)O)c1O	2810 (≈ 7490 µM)	59	1472	93	3.7	–
CC(Cc1nc2c(C(F)(F)F)cccc2c(C(=O)O)c1O)c1ccccc1 (centres undefined)	680 (≈ 1810 µM)	46	–	–	–	–
O=C(O)c1c(O)c(C2(c3ccc(Cl)cc3)CCC2)nc2c(C(F)(F)F)cccc12	–	0	–	–	–	–
O=C(O)c1c(O)c(C2(c3ccc(C(F)(F)F)cc3)CC2)nc2c(C(F)(F)F)cccc12	200 (≈ 453 µM)	47	13800	31	0.4	–
O=C(O)c1c(O)c(C2(c3ccsc3)CC2)nc2c(C(F)(F)F)cccc12	–	7	–	–	–	–
CCc1cccc2c(C(=O)O)c(O)c(C3(c4ccc(C(F)(F)F)cc4)CC3)nc12	250 (≈ 623 µM)	–	2428	100	9.4	–
CC(Cc1ccccc1)c1nc2c(C(F)(F)F)cccc2c(C(=O)O)c1O (centres undefined)	1550 (≈ 4130 µM)	49	–	–	–	–
Cc1ccc(C2(c3nc4c(C)c(C)ccc4c(C(=O)O)c3O)CC2)cc1	–	24	–	–	–	inhibition at 3 µM (CYP2C9): 47%
Cc1cc(C(F)(F)F)cc2c(C(=O)O)c(O)c(C3(c4ccc(Cl)cc4)CC3)nc12	–	40	–	–	–	inhibition at 3 µM (CYP2C9): 42%
O=C(O)c1c(O)c(C2(c3ccccc3)CC2)nc2c3c(ccc12)CCCC3	–	–	1925	45	3.9	pIC50 [5]: 3.60
O=C(O)c1c(O)c(C2Cc3ccccc32)nc2c(C(F)(F)F)cccc12 (centres undefined)	800 (≈ 2230 µM)	45	–	–	–	–
O=C(O)c1c(O)c(C2(c3ccccc3)CC2)nc2c(C(O)(C(F)(F)F)C(F)(F)F)cccc12	1500 (≈ 3180 µM)	–	5035	44	1	Activity (Mus musculus): 60%
CC(=O)N[C@H]1[C@H]([C@H](O)[C@H](O)CO)O[C@@](O[C@H]2[C@@H](O)[C@@H](CO)O[C@@H](O[C@@H]([C@H](O[C@@H]3O[C@@H](C)[C@@H](O)[C@@H](O)[C@@H]3O)[C@H](C=O)NC(C)=O)[C@H](O)CO)[C@@H]2O)(C(=O)O)C[C@@H]1O [SIALYL LEWIS X]	–	–	–	–	–	pIC50 [5]: 1.82
CCc1cc(C(F)(F)F)cc2c(C(=O)O)c(O)c(C3(c4ccc(Cl)cc4)CC3)nc12	–	< 10	–	–	–	inhibition at 3 µM (CYP2C9): 43%
O=C(O)c1c(O)c(C2(c3ccc(Cl)cc3)CC2)nc2c(C(F)(F)F)cc(Cl)cc12	–	< 10	–	–	–	inhibition at 3 µM (CYP2C9): 72%
O=C(O)c1c(O)c(C2(c3cccc(Cl)c3)CC2)nc2c(C(F)(F)F)cccc12	300 (≈ 736 µM)	66	–	–	–	–
O=C(O)c1c(O)c(C2(c3cccc(C(F)(F)F)c3)CC2)nc2c(C(F)(F)F)cccc12	1000 (≈ 2270 µM)	46	–	–	–	–
CC(c1ccccc1)c1nc2c3c(ccc2c(C(=O)O)c1O)CCCC3 (centres undefined)	–	–	1259	66	9	pIC50 [5]: 3.76
O=C(O)c1c(O)c(C2Cc3ccccc3C2)nc2c(C(F)(F)F)cccc12	700 (≈ 1880 µM)	35	340	49	28	–
CC(C)C(c1ccc(Cl)cc1)c1nc2c(C(F)(F)F)cccc2c(C(=O)O)c1O (centres undefined)	–	< 10	–	–	–	–
COc1ccc(C2(c3nc4c(C(F)(F)F)cccc4c(C(=O)O)c3O)CC2)cc1	–	26	–	–	–	–
CCc1cc(C(F)(F)F)c2nc(C3(c4ccc(Cl)cc4)CC3)c(O)c(C(=O)O)c2c1	–	< 10	–	–	–	inhibition at 3 µM (CYP2C9): 81%
